Measurements taken from US12102644B2, “Compounds and methods of promoting myelination” (Case Western Reserve University, priority 2019, dated 2024).
“Also recorded” adds a separate entry of the source.

Assays:
[1] = target: T1, rat CYP51 (Rattus norvegicus, UniProt Q64654); conditions: rat CYP51 enzymatic activity
T1 sequence (Q64654 1-503): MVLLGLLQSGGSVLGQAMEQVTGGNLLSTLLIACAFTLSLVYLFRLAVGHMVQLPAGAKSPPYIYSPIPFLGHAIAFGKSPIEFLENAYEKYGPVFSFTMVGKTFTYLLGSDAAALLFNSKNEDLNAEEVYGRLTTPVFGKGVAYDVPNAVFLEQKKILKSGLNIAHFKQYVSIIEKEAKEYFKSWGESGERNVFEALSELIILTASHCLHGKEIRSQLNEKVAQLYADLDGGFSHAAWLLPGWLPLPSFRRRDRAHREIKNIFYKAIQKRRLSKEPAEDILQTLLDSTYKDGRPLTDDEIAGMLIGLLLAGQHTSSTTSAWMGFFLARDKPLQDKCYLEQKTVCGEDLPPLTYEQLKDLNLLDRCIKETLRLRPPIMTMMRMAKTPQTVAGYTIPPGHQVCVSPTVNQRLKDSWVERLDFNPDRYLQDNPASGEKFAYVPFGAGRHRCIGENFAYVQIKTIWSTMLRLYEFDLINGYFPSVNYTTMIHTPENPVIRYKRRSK

[2] = system: mouse epiblast stem cell-derived OPCs; assay: In vitro OPC differentiation assay (percentage of MBP+ oligodendrocytes, high-content imaging); type: cell-based; conditions: for formation of MBP+ oligodendrocytes from OPCs / formation of MBP+ oligodendrocytes in combination with ketoconazole: 72 h; for formation of MBP+ oligodendrocytes from OPCs: differentiation-permissive conditions; for formation of MBP+ oligodendrocytes in combination with ketoconazole: co-treatment with ketoconazole 2.5 μM
Experimental: To rigorously assess effects of small molecule and genetic treatments on OPCs, all treatments were assayed in two batches of epiblast stem cell-derived OPCs, and key results were confirmed using mouse primary OPCs. OPCs were generated from two separate EpiSC lines, EpiSC5 (giving rise to OPC-5 OPCs) and 12901 (giving rise to OPC-1 OPCs). EpiSC-derived OPCs were obtained using in vitro differentiation protocols and culture conditions described previously. To ensure uniformity throughout all in vitro screening experiments, EpiSC-derived OPCs were sorted to purity by fluorescence activated cell sorting at passage five with conjugated CD 140a-APC (eBioscience, 17-1401; 1:80) and NG2-AF488 (Millipore, AB[…]; 1:100) antibodies. Sorted batches of OPCs were expanded and frozen down in aliquots. OPCs were thawed into growth conditions for one passage before use in further assays. Cultures were regularly tested and shown to be mycoplasma free. EpiSC-derived OPCs were grown and expanded in poly-ornithine (PO) and laminin-coated flasks with growth medium (DMEM/F12 supplemented with N2-MAX (R&D Systems), B-27 (ThermoFisher), GlutaMax (Gibco), FGF2 ([…], R&D systems, 233-FB-025) and PDGF-AA ([…], R&D systems, 233-AA-050) before harvesting for plating. The cells were seeded onto poly-D-[…]-well CellCarrier plates (PerkinElmer) coated with laminin (Sigma, L2020; 15 μg/ml) using multi-channel pipet. For the experiment, 800,000 cells/mL stock in differentiation medium (DMEM/F12 supplemented with N2-MAX and B-27) was prepared and stored on ice for 2 h. Then, 40,000 cells were seeded per well in differentiation medium and allowed to attach for 30 min before addition of drug. For dose-response testing of all molecules except sterols, a 1000× compound stock in dimethyl sulphoxide (DMSO) was added to assay plates with 0.1 μL solid pin multi-blot replicators (V & P Scientific; VP 409), resulting in a final primary screening concentration of 1×. Sterols were added to cells as an ethanol solution (0.2% final ethanol concentration). Positive control wells (ketoconazole, 2.5 μM) and DMSO vehicle controls were included in each assay plate. Cells were incubated under standard conditions (37° C., 5% CO2) for 3 days and fixed with 4% paraformaldehyde (PFA) in phosphate buffered saline (PBS) for 20 min. Fixed plates were washed with PBS (200 μL per well) twice, permeabilized with 0.1% Triton X-100 and blocked with 10% donkey serum (v/v) in PBS for 40 min. Then, cells were labelled with MBP antibodies (Abcam, ab7349; 1:200) for 16 h at 4° C. followed by detection with Alexa Fluor conjugated secondary antibodies (1:500) for 45 min. Nuclei were visualized by DAPI staining (Sigma; 1 μg/ml). During washing steps, PBS was added using a multi-channel pipet and aspiration was performed using Biotek EL406 washer dispenser (Biotek) equipped with a 96-well aspiration manifold. Plates were imaged on the Operetta High Content Imaging and Analysis system (PerkinElmer) and a set of 6 fields captured from each well resulting in an average of 1200 cells being scored per well. Analysis (PerkinElmer Harmony and Columbus software) began by identifying intact nuclei stained by DAPI; that is, those traced nuclei that were larger than 300 μm^2 in surface area. Each traced nucleus region was then expanded by 50% and cross-referenced with the […] (MBP) stain to identify oligodendrocyte nuclei, and from this the percentage of oligodendrocytes was calculated. In some experiments, the total process length of MBP^+ oligodendrocytes was calculated as previously described.

[3] = system: human ERα, GR, LXRβ, NFkB, NRF2, PGR, PPARδ, PPARγ, RARα, RARγ, RXRα, RXRβ, TRα, TRβ, VDR, ERRα, RORα and RORγ; assay: Luciferase reporter assays for 18 nuclear hormone receptors; type: cell-based; conditions: 2,2-Dimethylzymosterol 5 μM, Ketoconazole 2.5 μM, TASIN-1 250 nM
Experimental: FIGS. 6(A-D) illustrate images and graphs showing the effect of 8,9-unsaturated sterols on nuclear hormone receptors and SREBP2 activity: a) Luciferase reporter assays were used to assess if 2,2-Dimethylzymosterol (5 μM), Ketoconazole (2.5 μM), and TASIN-1 (250 nM) modulate human ERα, GR, LXRβ, NFkB, NRF2, PGR, PPARδ, PPARγ, RARα, RARγ, RXRα, RXRβ, TRα, TRβ and VDR transcriptional activity in agonist mode and ERRα, RORα and RORγ in inverse-agonist mode. Measurements are shown as percentage of positive control, n=2 replicates per condition and n=3 replicates per condition for the controls. b) Effects of sterols (T-MAS 5 μM, FF-MAS 10 μM) and small molecules (Ketoconazole 2.5 μM, TASIN-1 100 nM) on the NR2F1-mediated activation of a NGFI-A promoter driven luciferase reporter in comparison to cells containing the reporter only (Ctrl.) or untreated. n=2 replicates per condition, with triplicate measurements per replicate. c) Effects of 2,2-dimethylzymosterol (5 μM) on the NR2C2 mediated activation of a NGFI-A promoter driven luciferase reporter in comparison to cells infected with reporter only, untreated, or treated with a previously reported positive control (all-trans retinoic acid, ATRA, 5 μM). n=2 replicates per condition, with triplicate measurements per replicate. d) LSS, DHCR7, LDLR mRNA levels measured by RT-qPCR following 24 h treatment with DMSO, Mevastatin (2.5 μM), Ro 48-8071 (500 nM), Ketoconazole (2.5 μM), TASIN-1 (100 nM), or Amorolfine (100 nM). n=2 replicates, with triplicate qPCR measurements per replicate. Experiments in panels b-d are representative of two indpedendent experiments.

[4] = system: NR2C2; assay: NR2C2-mediated NGFI-A promoter luciferase reporter; type: cell-based; conditions: 2,2-dimethylzymosterol 5 μM
Experimental: (§1) FIGS. 6(A-D) illustrate images and graphs showing the effect of 8,9-unsaturated sterols on nuclear hormone receptors and SREBP2 activity: a) Luciferase reporter assays were used to assess if 2,2-Dimethylzymosterol (5 μM), Ketoconazole (2.5 μM), and TASIN-1 (250 nM) modulate human ERα, GR, LXRβ, NFkB, NRF2, PGR, PPARδ, PPARγ, RARα, RARγ, RXRα, RXRβ, TRα, TRβ and VDR transcriptional activity in agonist mode and ERRα, RORα and RORγ in inverse-agonist mode. […]

[5] = target: T2, EBP (Mus musculus, UniProt P70245); assay: EBP enzymatic assay (GC/MS); type: biochemical; conditions: small molecules 10 μM, zymostenol 25 μM, 2 h
T2 construct: active EBP was obtained from mouse microsomes; from tissue
T2 sequence (P70245 1-230): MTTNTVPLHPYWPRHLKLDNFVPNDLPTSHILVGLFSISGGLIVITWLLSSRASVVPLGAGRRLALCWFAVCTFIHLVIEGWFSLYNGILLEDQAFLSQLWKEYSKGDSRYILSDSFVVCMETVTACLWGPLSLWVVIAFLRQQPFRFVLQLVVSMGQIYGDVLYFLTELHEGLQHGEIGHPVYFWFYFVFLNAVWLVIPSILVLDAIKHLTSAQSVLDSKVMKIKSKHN

[6] = system: NR2F1; assay: NR2F1-mediated NGFI-A promoter luciferase reporter; type: cell-based; conditions: Ketoconazole 2.5 μM, TASIN-1 100 nM
Experimental: as §1

[7] = system: EpiSC-derived OPCs on microfibers; assay: Oligodendrocyte formation on electrospun microfibers; type: cell-based, mouse; conditions: 14 days
Experimental: A 12-well plate containing Mimetex aligned scaffold (microfiber plate, AMSBIO, AMS.TECL-006-1X, Electrospun poly-L-lactide Scaffold, […] cell crown inserts) was prepared as previously described. Briefly, inserts were sterilized with 70% ethanol and washed with PBS before being coated with polyornithine and laminin. After laminin coating, 100,000 cells/mL of EpiSC-derived OPCs were plated in differentiation medium. After 24 h the media was replaced with fresh media containing small molecule treatments. Every 48 h the media was replaced with fresh compound containing media for a total of 14 days. Plates were fixed with 4% PFA, permeabilized with 0.1% Triton X-100, and blocked with 10% donkey serum (v/v) in PBS for 60 min. Plates were stained for MBP (Abcam, ab7349; 1:100) and DAPI staining (Sigma; 5 μg/ml). After staining, the inserts were moved into new 12-well plate and covered with 2 mL of PBS before imaging in Operetta high content Imaging and analysis system. Plates were imaged on the Operetta High Content Imaging and Analysis system (PerkinElmer) and a set of 8 fields captured from each well resulting in an average of 45,000 cells being scored per well. Analysis (PerkinElmer Harmony and Columbus software) identified intact nuclei stained by DAPI and calculated the MBP signal intensity per cell per well. Microfiber insert tracking images were taken using a Leica DMi8 with a 20× Dry/NA 0.40 objective. Microfiber plate inserts were mounted using Flouromount-G (SouthernBiotech) and allowed to partially harden before coverslips were added and the insert ring was removed. Confocal images were obtained on a Leica SP8 confocal scanning microscope, with 40× oil/NA 1.30 objective. Confocal stacks of 0.336 μm z-steps were taken at 1024×1024. Each fluorophore was excited sequentially and all contrast and brightness changes were applied consistently between images.

[8] = target: T1, rat CYP51; assay: biochemical
[9] = system: LPC-lesioned spinal cord; assay: LPC focal demyelination of spinal cord, remyelination histology; type: in vivo, mouse; conditions: ifenprodil 10 mg per kg or tamoxifen 2 mg per kg, daily i.p., 8 days from day 4 after lesion
[10] = system: sterol levels in OPCs (cholesterol biosynthesis pathway); assay: GC/MS-based sterol profiling in OPCs; type: cell-based, mouse; conditions: 24 h treatment

CC(=O)N1CCN(c2ccc(OC[C@H]3CO[C@@](Cn4ccnc4)(c4ccc(Cl)cc4Cl)O3)cc2)CC1 (stereo in doubt) [S-trans-Ketoconazole]
inhibition of mammalian CYP51 in vitro [1]: strikingly less effective at inhibiting mammalian CYP51

CC(C)=CCC[C@@H](C)[C@H]1CC[C@H]2C3=C(CC[C@]12C)[C@@]1(C)CC(C)(C)[C@H](O)C[C@@H]1CC3 [2,2-dimethylzymosterol]
formation of MBP+ oligodendrocytes from OPCs [2]: maximally potent enhancers of oligodendrocyte formation among the 8,9-unsaturated sterols tested
EC50 ([2]; OPC-5 and OPC-1, 72 h, read-out: EC50 for enhancing oligodendrocyte formation): 1000 to 2000 nM
formation of MBP+ oligodendrocytes in combination with ketoconazole [2]: no further benefit over ketoconazole alone
agonist activity in NHR reporter assays [3]: no molecule showed significant agonist activity in any assay
NR2C2-mediated reporter activation [4]: ineffective

COc1ccc(S(=O)(=O)N2CCC(N3CCC(C)CC3)CC2)cc1 [TASIN-1]
formation of MBP+ oligodendrocytes from OPCs [2]: enhanced formation of MBP^+ oligodendrocytes
inhibition of EBP enzymatic activity [5]: clear inhibition
agonist activity in NHR reporter assays [3]: no molecule showed significant agonist activity in any assay
NR2F1-mediated reporter activation [6]: ineffective
MBP+ oligodendrocyte tracking along and wrapping of microfibers [7]: significantly enhanced MBP+ oligodendrocyte tracking along and wrapping of the microfibers

CCC(C)(C)c1ccc(CC(C)CN2C[C@@H](C)O[C@@H](C)C2)cc1 (stereo partly drawn) [amorolfine, Amorolfine]
formation of MBP+ oligodendrocytes from OPCs [2]: enhanced formation of MBP^+ oligodendrocytes
MBP+ oligodendrocyte tracking along and wrapping of microfibers [7]: significantly enhanced MBP+ oligodendrocyte tracking along and wrapping of the microfibers

OC(Cn1cncn1)(Cn1cncn1)c1ccc(F)cc1F [fluconazole, Fluconazole]
inhibition of mammalian CYP51 in vitro [1]: did not inhibit mammalian CYP51 in vitro

CC(=O)N1CCN(c2ccc(OCC3COC(Cn4ccnc4)(c4ccc(Cl)cc4Cl)O3)cc2)CC1 (stereo not drawn) [ketoconazole, Ketoconazole]
formation of MBP+ oligodendrocytes from OPCs [2]: enhanced formation of MBP^+ oligodendrocytes
agonist activity in NHR reporter assays [3]: no molecule showed significant agonist activity in any assay
NR2F1-mediated reporter activation [6]: ineffective
MBP+ oligodendrocyte tracking along and wrapping of microfibers [7]: significantly enhanced MBP+ oligodendrocyte tracking along and wrapping of the microfibers
IC50 [8]: 300 to 700 nM

CC/C(=C(\c1ccccc1)c1ccc(OCCN(C)C)cc1)c1ccccc1 [tamoxifen, Tamoxifen]
formation of MBP+ oligodendrocytes from OPCs [2]: enhance the formation of oligodendrocytes with comparable potency
formation of MBP+ oligodendrocytes in combination with ketoconazole [2]: did not enhance differentiation above levels seen for ketoconazole alone
inhibition of EBP enzymatic activity [5]: clear inhibition
remyelination of LPC lesion [9]: remyelination was widespread throughout the lesion
accumulation of sterol intermediates in OPCs (enzyme inhibition in OPCs, e.g. EBP) [10]: induced accumulation of zymostenol and zymosterol and decreased basal sterol levels; also recorded: inhibit EBP in OPCs
